Values joined by “and” are separate entries in the source; they are usually repeats but may differ in a detail not shown here. Equal entries are not always repeated. Structures can show the parent of a compound that is named as a salt. ± gives the expanded uncertainty stated by the source.
Conditions: Transpiration method

CC(C)(C)OC(=O)CCCCC(=O)OC(C)(C)C [di-tert-butyl adipate]
Liquid
Conditions	vapor or sublimation pressure [kPa]
322.6 K	0.00711 ± 0.00055
323.4 K	0.00757 ± 0.00058
326.2 K	0.00926 ± 0.0007
329 K	0.0113 ± 0.00086
331.8 K	0.01428 ± 0.0011
336 K	0.01907 ± 0.0014
338 K	0.02216 ± 0.0017
341 K	0.02859 ± 0.0021
344 K	0.03272 ± 0.0024
346.9 K	0.04033 ± 0.0031
349.9 K	0.0511 ± 0.0038
352.9 K	0.06145 ± 0.0046
355.9 K	0.07647 ± 0.0057
358.9 K	0.09287 ± 0.0069
361.9 K	0.1117 ± 0.0079
362.4 K	0.1137 ± 0.0081
362.5 K	0.1144 ± 0.0082
366.3 K	0.1453 ± 0.011

CC(C)OC(=O)CC(=O)OC(C)C [diisopropyl malonate]
Liquid
Conditions	vapor or sublimation pressure [kPa]
289.3 K	0.00784 ± 0.00064
292.5 K	0.0105 ± 0.0008
295.4 K	0.0139 ± 0.0011
298.4 K	0.0172 ± 0.0013
301.4 K	0.0228 ± 0.0018
304.4 K	0.0293 ± 0.0023
307.4 K	0.0375 ± 0.0029
310.4 K	0.0471 ± 0.0036
313.4 K	0.0581 ± 0.0044
315.4 K	0.0688 ± 0.0053
316.5 K	0.0757 ± 0.0057
318.5 K	0.0862 ± 0.0066
319.4 K	0.0965 ± 0.0072
321.5 K	0.1068 ± 0.0078
322.5 K	0.1138 ± 0.009
323.5 K	0.1282 ± 0.01
325.4 K	0.1468 ± 0.011

CC(C)(C)OC(=O)C(=O)OC(C)(C)C [di-tert-butyl oxalate]
Conditions	vapor or sublimation pressure [kPa]
293.8 K, Crystal	0.00391 ± 0.00038
296.7 K, Crystal	0.0058 ± 0.00049
299.7 K, Crystal	0.00793 ± 0.00065
302.7 K, Crystal	0.0109 ± 0.0009
305.7 K, Crystal	0.0154 ± 0.0013
308.3 K, Crystal	0.0201 ± 0.0019
308.8 K, Crystal	0.0217 ± 0.002
311.2 K, Crystal	0.0276 ± 0.0024
311.7 K, Crystal	0.0293 ± 0.0025
314.2 K, Crystal	0.0384 ± 0.0032
314.7 K, Crystal	0.0405 ± 0.0033
317.6 K, Crystal	0.0574 ± 0.0047
320.7 K, Crystal	0.0769 ± 0.006
323.2 K, Crystal	0.0956 ± 0.0076
323.6 K, Crystal	0.1 ± 0.0079
326.6 K, Crystal	0.1313 ± 0.01
329.6 K, Crystal	0.1637 ± 0.013
333.2 K, Crystal	0.2253 ± 0.023
333.7 K, Crystal	0.2468 ± 0.024
338.2 K, Crystal	0.3739 ± 0.028
338.6 K, Crystal	0.3689 ± 0.028
345.6 K, Liquid	0.4066 ± 0.03
346.7 K, Liquid	0.4358 ± 0.033
347.6 K, Liquid	0.4703 ± 0.034
348.6 K, Liquid	0.4816 ± 0.035
351.5 K, Liquid	0.5565 ± 0.041
351.7 K, Liquid	0.5963 ± 0.044
352.5 K, Liquid	0.6078 ± 0.044
354.5 K, Liquid	0.6715 ± 0.049
356.5 K, Liquid	0.7609 ± 0.056
357.5 K, Liquid	0.799 ± 0.059
360.7 K, Liquid	0.9613 ± 0.074
361.2 K, Liquid	1 ± 0.076
363.7 K, Liquid	1.053 ± 0.076
366.2 K, Liquid	1.252 ± 0.093
371.2 K, Liquid	1.638 ± 0.12

CC(C)(C)OC(=O)CCC(=O)OC(C)(C)C [di-tert-butyl succinate]
Liquid
Conditions	vapor or sublimation pressure
323.2 K	0.0331 ± 0.0026 kPa
326.2 K	0.0419 ± 0.0032 kPa
331.2 K	0.0592 ± 0.0044 kPa
333.2 K	0.0697 ± 0.0054 kPa
335.2 K	0.0817 ± 0.006 kPa
337.2 K	0.0885 ± 0.0066 kPa
339.2 K	0.1043 ± 0.0079 kPa
341.2 K	0.1198 ± 0.0089 kPa
343.2 K	0.1351 ± 0.01 kPa
345.2 K	0.1498 ± 0.011 kPa and 0.1534 ± 0.011 kPa
347.2 K	0.1716 ± 0.013 kPa
349.2 K	0.2009 ± 0.015 kPa
351.2 K	0.2187 ± 0.016 kPa
353.2 K	0.2523 ± 0.019 kPa
355.2 K	0.2842 ± 0.021 kPa

CC(C)OC(=O)CCC(=O)OC(C)C [bis(1-methylethyl) butanedioate]
Liquid
Conditions	vapor or sublimation pressure [kPa]
304.4 K	0.0113 ± 0.0009
307.4 K	0.0147 ± 0.0011
310.4 K	0.0186 ± 0.0014
313.4 K	0.0236 ± 0.0018
316.4 K	0.0301 ± 0.0023
318.5 K	0.0352 ± 0.0027
321.4 K	0.0448 ± 0.0034
323.4 K	0.0527 ± 0.004
326.4 K	0.0651 ± 0.0049
328.5 K	0.0749 ± 0.0058
331.4 K	0.096 ± 0.0073
333.3 K	0.1092 ± 0.0081

CC(C)(C)OC(=O)CC(=O)OC(C)(C)C [bis(1,1-dimethylethyl) propanedioate]
Liquid
Conditions	vapor or sublimation pressure [kPa]
293.7 K	0.00787 ± 0.00064
295.7 K	0.00952 ± 0.00075
298.6 K	0.0122 ± 0.001
301.7 K	0.0159 ± 0.0012
303.6 K	0.0186 ± 0.0014
306.6 K	0.023 ± 0.0017
308.6 K	0.0274 ± 0.0022
310.7 K	0.0337 ± 0.0027
312.6 K	0.0399 ± 0.0031
315.6 K	0.0494 ± 0.0036
317.6 K	0.055 ± 0.0042
319.6 K	0.0663 ± 0.0049
321.6 K	0.0714 ± 0.0053
323.6 K	0.0845 ± 0.0065
324.7 K	0.0934 ± 0.0071
327.6 K	0.1125 ± 0.0089
333.5 K	0.1828 ± 0.013
336.5 K	0.2131 ± 0.016
339.5 K	0.2702 ± 0.02
342.5 K	0.333 ± 0.025
345.5 K	0.3886 ± 0.028

CC(C)OC(=O)C(=O)OC(C)C [diisopropyl oxalate]
Liquid
Conditions	vapor or sublimation pressure [kPa]
287.5 K	0.0149 ± 0.0012
290.4 K	0.0197 ± 0.0016
293.3 K	0.0254 ± 0.002
297.3 K	0.035 ± 0.0027
300.3 K	0.0452 ± 0.0035
303.3 K	0.0576 ± 0.0044
306.3 K	0.0712 ± 0.0054
308.3 K	0.0846 ± 0.0066
311.2 K	0.1081 ± 0.0082
313.3 K	0.1266 ± 0.0094
316.3 K	0.151 ± 0.011
318.4 K	0.1722 ± 0.013
318.5 K	0.1731 ± 0.013
321.2 K	0.2066 ± 0.015
322.4 K	0.2247 ± 0.018
323.6 K	0.2533 ± 0.019
326.4 K	0.2884 ± 0.021
330.5 K	0.3766 ± 0.028

CC(C)(C)OC(=O)CCCC(=O)OC(C)(C)C [di-tert-butyl glutarate]
Liquid
Conditions	vapor or sublimation pressure [kPa]
295.2 K	0.00104 ± 9e-05
297.2 K	0.0013 ± 0.00011
299.2 K	0.00157 ± 0.00012
301.2 K	0.00187 ± 0.00015
303.2 K	0.00231 ± 0.00018
305.2 K	0.00276 ± 0.00022
307.2 K	0.00334 ± 0.00026
309.2 K	0.00393 ± 0.00031
311.2 K	0.00471 ± 0.00038
313.2 K	0.00581 ± 0.00045
315.2 K	0.00674 ± 0.00052
317.2 K	0.00801 ± 0.00061
319.2 K	0.00909 ± 0.00068
321.2 K	0.0104 ± 0.0008
323.2 K	0.0123 ± 0.001
325.2 K	0.0152 ± 0.0012

CC(C)OC(=O)CCCC(=O)OC(C)C [bis(1-methylethyl) pentanedioate]
Liquid
Conditions	vapor or sublimation pressure [kPa]
294.5 K	0.00137 ± 0.00011
297.5 K	0.00175 ± 0.00014
300.5 K	0.00246 ± 0.0002
303.4 K	0.00328 ± 0.00026
306.4 K	0.00433 ± 0.00035
309.5 K	0.00594 ± 0.00045
312.5 K	0.00714 ± 0.00055
315.5 K	0.00958 ± 0.00076
318.6 K	0.0126 ± 0.001
322.7 K	0.017 ± 0.0013
324.4 K	0.0199 ± 0.0015
327.4 K	0.0251 ± 0.0019

— the NIST ThermoML archive (doi:10.1016/j.fluid.2011.07.007)
